Test results published in US6114175A, “Compound for the antemortem diagnosis of Alzheimer's Disease and in vivo imaging and prevention of amyloid deposition” (priority 1998, dated 2000).
Entries after “also recorded” stand apart in the source; their conditions may differ. Read-outs that look alike come from different tables or passages of the source. Values belong to the molecule of their own block, whether it stands above or below them.

Legend:
[1] = system: AD brain; assay: Histologic staining of human AD brain sections; details: fluorescence microscopy
Description: 26: 241-242 (1973) with 1 mM 1,4-bis(3-carboxy-4-hydroxyphenylethenyl)-benzene substituted for Congo red, but the procedure was otherwise identical. Stained slides were examined using fluorescence microscopy.
(§1) The staining method was that of Stokes and Trickey, J. Clin. Pathol. 26: 241-242 (1973) with 1,4-bis(3-carboxy-4-hydroxyphenylethenyl)-benzene substituted for Congo red.

[2] = system: transgenic mouse brain [Tg(HuAPP695.SWE)2576]; assay: Histologic staining of transgenic mouse brain sections; details: fluorescence microscopy
Text: as §1

[3] = target: T1, Aβ(10-43) (Homo sapiens, UniProt P05067); assay: Inhibition of [^14 C]Chrysamine G binding to Aβ(10-43); details: for potency/affinity relative to another compound: Congo red or the series
[4] = Octanol/water partitioning; details: phosphate buffered saline, pH 7.4
[5] = system: AD brain; assay: Scatchard analysis of [^14 C]CG binding to AD brain; parameters: species or system human
[6] = system: control brain; assay: Scatchard analysis of [^14 C]CG binding to control brain; parameters: species or system human
[7] = system: AD brain; assay: Total [^14 C]Chrysamine G binding in AD brain homogenates
[8] = target: T1, Aβ(10-43)
[9] = Tissue levels and metabolism of [^14 C]Chrysamine G in mice
[10] = system: control brain; assay: Total [^14 C]Chrysamine G binding in control brain homogenates
[11] = target: T1, Aβ(10-43); assay: Scatchard analysis of Chrysamine G binding to synthetic Aβ(10-43)
[12] = system: PC-12 cells; assay: Protection from Aβ(25-35)-induced toxicity in PC-12 cells (MTT reduction); details: for protection against Aβ(25-35)-induced toxicity: 1 μM Aβ(25-35) (FIG. 14)
[13] = cited from earlier work
[14] = mouse; Tubis et al.; cited from earlier work
[15] = system: Aβ; details: cited from earlier work
[16] = system: pancreatic islet cells; details: cited from earlier work
[17] = system: Aβ; details: Lorenzo and Yankner; cited from earlier work

T1 sequence (P05067 681-714): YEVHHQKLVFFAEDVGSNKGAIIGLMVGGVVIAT

SMILES: O=C(O)c1cc(C=Cc2ccc(C=Cc3ccc(O)c(C(=O)O)c3)cc2)ccc1O [1,4-bis(3-carboxy-4-hydroxyphenylethenyl)-benzene]
- staining of human AD brain [1]: much more intense than that observed with Chrysamine G, Congo red, or Thioflavin S; also recorded: Visible are a large number of neuritic plaques, a neurofibrillary tangle and frequent neuropil threads
- staining of transgenic mouse brain [2]: intensely stained plaque

- binding activity [3]: inactivity
SMILES: O=C(O)c1cc(N=Nc2ccc(-c3ccc(N=Nc4ccc(O)c(C(=O)O)c4)cc3S(=O)(=O)O)c(S(=O)(=O)O)c2)ccc1O [2,2'-(SO3)2 CG]

- loss of activity from Chrysamine G ([3]; relative to Chrysamine G): 7 fold
SMILES: O=C(O)c1cc(N=Nc2ccc(-c3ccc(N=Nc4ccc(O)c(C(=O)O)c4)c(C(=O)O)c3)cc2C(=O)O)ccc1O [3,3'-(COOH)2 CG]

- potency/affinity relative to another compound ([3]; relative to Chrysamine G): about half that of Chrysamine G
SMILES: O=C(O)c1cc(N=Nc2ccc(-c3ccc(N=Nc4ccc(O)c(C(=O)O)c4)c(Br)c3)cc2Br)ccc1O [3,3'-Br2 CG]

- potency/affinity relative to another compound ([3]; relative to Chrysamine G): about half that of Chrysamine G
SMILES: O=C(O)c1cc(N=Nc2ccc(-c3ccc(N=Nc4ccc(O)c(C(=O)O)c4)c(Cl)c3)cc2Cl)ccc1O [3,3'-Cl2 CG]

- logD [4]: 2.05
- potency/affinity relative to another compound ([3]; relative to Chrysamine G): about half that of Chrysamine G
SMILES: O=C(O)c1cc(N=Nc2ccc(-c3ccc(N=Nc4ccc(O)c(C(=O)O)c4)c(I)c3)cc2I)ccc1O [3,3'-I2 CG]

- potency/affinity relative to another compound ([3]; relative to Chrysamine G): slightly more potent than Chrysamine G
SMILES: O=C(O)c1cc(N=Nc2ccc(-c3ccc(N=Nc4ccc(O)c(C(=O)O)c4)c(I)c3)cc2)ccc1O [3-ICG]

SMILES: O=C(O)c1cc(F)cc(N=Nc2ccc(-c3ccc(N=Nc4cc(F)cc(C(=O)O)c4O)cc3)cc2)c1O [(5-FSA)CG]
- potency/affinity relative to another compound ([3]; relative to Chrysamine G): one-third as potent as Chrysamine G itself

- Ki [3]: 94 ± 20 nM
- potency/affinity relative to another compound ([3]; relative to Chrysamine G): highest affinity compound in this series
SMILES: O=C(O)c1c(O)ccc(N=Nc2ccc(-c3ccc(N=Nc4ccc(O)c(C(=O)O)c4O)cc3)cc2)c1O [(6-OHSA)CG]

- Bmax, AD brain (Table 1) ([5]; n = 5): 0.784 ± .061 pmol/μg prot
- Kd ([5]; n = 5, read-out: KD, AD brain (Table 1)): 390 ± 48 nM
- Bmax in AD brain higher than control ([5]; p=0.09, not significant): 36%
- KD in AD brain lower than control ([5]; p=0.29, not significant): 16%
- Bmax (typical AD brain sample) ([5]; sample with 48 NP/×200 magnification): 790 fmol/μg protein
- Kd ([5]; sample with 48 NP/×200 magnification, read-out: KD (typical AD brain sample)): 350 nM
- Bmax, control brain (Table 1) ([6]; n = 6): 0.576 ± .092 pmol/μg prot
- Kd ([6]; n = 6, read-out: KD, control brain (Table 1)): 470 ± 49 nM
- Bmax (typical control sample) ([6]; single typical control): 614 fmol/μg protein
- Kd ([6]; single typical control, read-out: KD (typical control sample)): 480 nM
- logD [4]: 1.78
- saturable (specific) binding as share of total binding in AD brain ([7]; 20 μM unlabelled CG defines non-saturable): 60-80%
- correlation (r) of [^14 C]CG binding with NPs ([7]; AD brains alone, p=0.007): 0.59
- correlation (r) of [^14 C]CG binding with NFTs ([7]; AD brains alone, p=0.026): 0.50
- total binding, Head of Caudate ([7]; AD, n = 7, p = 0.14): 123 ± 22 fmol/μg protein
- total binding, Frontal Pole ([7]; AD, n = 10, p < 0.006): 124 ± 16 fmol/μg protein
- total binding, Superior/Middle Frontal ([7]; AD, n = 11, p < 0.005): 130 ± 21 fmol/μg protein
- total binding, Superior Temporal ([7]; AD, n = 11, p < 0.02): 121 ± 14 fmol/μg protein
- total binding, Inferior Parietal ([7]; AD, n = 11, p < 0.03): 137 fmol/μg protein
- total binding, Cerebellum ([7]; AD, n = 11, p = 0.91): 73 ± 9 fmol/μg protein
- correlation (r) of CG binding with NP counts ([7]; brains with cerebrovascular amyloid, p=0.15): 0.49
- correlation (r) of CG binding with NP counts ([7]; brains without amyloid angiopathy, p=0.01): 0.79
- correlation (r) of [^14 C]CG binding with NFTs ([7]; controls included, p=0.001): 0.60
- correlation (r) of [^14 C]CG binding with NPs ([7]; controls included, p=0.001): 0.69
- dissociation t1/2 [8]: 55 ± 9.4 s
- total binding, Head of Caudate ([10]; n = 4): 73 ± 11 fmol/μg protein
- total binding, Frontal Pole ([10]; n = 6): 58 ± 8 fmol/μg protein
- total binding, Cerebellum ([10]; n = 8): 75 ± 13 fmol/μg protein
- total binding, Inferior Parietal ([10]; n = 8): 76 ± 13 fmol/μg protein
- total binding, Superior Temporal ([10]; n = 8): 66 ± 17 fmol/μg protein
- total binding, Superior/Middle Frontal ([10]; n = 8): 54 ± 10 fmol/μg protein
- energy of binding (from KD) ([11]; KD 0.26 μM): roughly 38 KJ/mole
- Bmax, lower affinity component ([11]; less well defined): 18.7 nmoles Chrysamine G/mg Aβ(10-43)
- Kd ([11]; read-out: KD, higher affinity component (Scatchard), Aβ(10-43), two-site model): 260 nM
- Kd ([11]; read-out: KD, lower affinity component (Scatchard), less well defined): 4010 nM
- Bmax, higher affinity component ([11]; two-site model): 3.18 nmoles Chrysamine G/mg Aβ(10-43)
SMILES: O=C(O)c1cc(N=Nc2ccc(-c3ccc(N=Nc4ccc(O)c(C(=O)O)c4)cc3)cc2)ccc1O [Chrysamine G, 4,4'-bis(3-carboxy-4-hydroxyphenylazo)-biphenyl]
- overlap of binding between control and AD samples ([7]; superior/middle frontal cortex): no overlap between control and any of the AD samples
- metabolism ([9]; 60 min after i.v. injection, brain and liver): no significant metabolism; also recorded: essentially all of the radioactivity found in the brain and liver proved to be unchanged Chrysamine G
- entry into brain ([9]; normal mouse brain): does get into normal mouse brain, and the brain/blood ratio is high
- protection against Aβ(25-35)-induced toxicity [12]: protective effects at 0.1 and 1 μM
- protective effect dependence ([12]; 0.01 to 10 μM Aβ(25-35) and 0.03 to 20 μM CG): protective effect which is dependent on both the concentration of Aβ(25-35) (FIG. 12) as well as the concentration of Chrysamine G
- minimal effective concentration ([12]; Rattus norvegicus, PC-12, 24 h, read-out: concentration at which protective effect is evident): 0.2 µM
- MTT reduction in the absence of Aβ(25-35) vs control ([12]; any of the Chrysamine G concentrations): no significant difference

SMILES: Nc1c(/N=N/c2ccc(-c3ccc(/N=N/c4cc(S(=O)(=O)O)c5ccccc5c4N)cc3)cc2)cc(S(=O)(=O)O)c2ccccc12 [Congo red]
- blood-brain barrier crossing ([13]; guinea pig, in vivo): does not cross the blood-brain barrier well
- brain/kidney ratio ([13]; guinea pigs): approximately 0.07
- LD50 [14]: 190 mg/kg
- concentration for complete protection against Aβ-induced toxicity [15]: ≤ 20 µM
- concentration for protection against Aβ-induced toxicity [15]: over 2 μM
- effect on Aβ-induced neurotoxicity ([15]; in vitro): inhibits fibrillar Aβ neurotoxicity; also recorded: inhibits Aβ-induced neurotoxicity and cell degeneration in vitro
- effect on amylin toxicity to pancreatic islet cells [16]: inhibit pancreatic islet cell toxicity; also recorded: protect pancreatic islet cells from the toxicity caused by amylin
- effect on aggregation of Aβ [17]: does inhibit aggregation of Aβ
- logD [4]: -0.177
- Ki ([3]; read-out: Ki for inhibition of [^14 C]Chrysamine G binding to Aβ(10-43), [^14 C]Chrysamine G 0.100-0.125 μM): 2800 nM

- Ki [3]: 73000 nM
- binding activity [3]: decrease in affinity
- energy of binding (from Ki) ([3]; Ki of 73 μM): 23 kJ/mol
- expected energy of binding (one-half of Chrysamine G) ([3]; predicted value): about 19 KJ/mole
SMILES: O=C(O)c1cc(N=Nc2ccccc2)ccc1O [aniline derivative]

SMILES: Oc1ccc(N=Nc2ccc(-c3ccc(N=Nc4ccc(O)cc4)cc3)cc2)cc1 [phenol derivative]
- binding activity [3]: completely destroyed binding affinity; also recorded: does not bind to synthetic Aβ
- protection against Aβ(25-35)-induced toxicity [12]: no protective effects, and perhaps enhanced the toxicity of Aβ

SMILES: O=C(O)c1ccccc1O [salicylic acid]
- binding activity [3]: total lack of binding activity; also recorded: inactivity
